Test systems include CCRF-CEM; COLO 205; DU-145; EKVX; IGROV-1; KM12; MCF7; MDA-MB-435; MOLT-4; NCI-H23; OVCAR-3; RPMI-8226; SF-539; SK-MEL-2; SK-MEL-5; SR; T47D; TK-10; UACC-257; UACC-62.
Experiment in all cases: NCI anticancer screen, dose series, 48 h

The structures appear in SMILES notation.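 Each compound was tested at five concentrations against cells in 96-well plates for 48 hours. GI50 is the concentration that inhibits growth by half.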 Calls of active or inactive are those of the source. Rule as the data show it: active = GI50 up to about 1.1 µM and inactive = higher. Peptide text beside a SMILES is read from it. * marks the point of attachment. Cbz = O=C(OCc1ccccc1)*; Boc = CC(C)(C)OC(=O)*; OBn = c1ccc(CO*)cc1

For the molecule `COC(=O)C1CCC(=O)N1C(c1ccc2c(c1)OCO2)c1ccc2c(c1)OCO2` (stereo not given), the GI50 in the test with CCRF-CEM, with COLO 205, in the test on DU-145, with EKVX, in the test on IGROV-1 and in the test with KM12 was > 100 µM (inactive) each time. Moreover, the GI50 in the test on MCF7, in the test on MDA-MB-435, with MOLT-4, in the test with NCI-H23, with OVCAR-3 and in the test with RPMI-8226 was > 100 µM (inactive) each time. Further, the GI50 in the test on SF-539, with SK-MEL-2, with SK-MEL-5, with SR, with T47D and with TK-10 was > 100 µM (inactive) each time. The GI50 with UACC-257 and with UACC-62 was > 100 µM (inactive) in each case.
With `O=C1NC(=S)N/C1=C\c1cc2c(=O)c3ccccc3sc2s1`, the GI50 was 47.4 µM (inactive) with COLO 205; > 100 µM (inactive) in the test with DU-145; 3.51 µM (inactive) in the test on EKVX; 40.7 µM (inactive) in the test with IGROV-1; > 100 µM (inactive) with KM12; 35.8 µM (inactive) with MCF7. For the same molecule, the GI50 is > 100 µM (inactive) in the test with MDA-MB-435; 23.5 µM (inactive) with MOLT-4; 52.8 µM (inactive) in the test on NCI-H23; 54.1 µM (inactive) in the test with OVCAR-3; 25.6 µM (inactive) in the test with RPMI-8226; > 100 µM (inactive) with SK-MEL-2. Moreover, the GI50 was > 100 µM (inactive) in the test on SK-MEL-5; 22.8 µM (inactive) with SR; > 100 µM (inactive) in the test on T47D; 97.7 µM (inactive) in the test with TK-10; > 100 µM (inactive) in the test on UACC-257; 29.4 µM (inactive) in the test on UACC-62.
Take `N#Cc1c(=O)c2ccccc2n2c1[nH]c1ccccc12`: the GI50 in the test with CCRF-CEM is 17.8 µM (inactive); with COLO 205, 43.1 µM (inactive); in the test with DU-145, 33.9 µM (inactive); in the test on EKVX, 25 µM (inactive); in the test with IGROV-1 it was 16.1 µM (inactive); in the test on KM12 it was 27.4 µM (inactive). Also, the GI50 in the test with MCF7 was 56.2 µM (inactive); with MDA-MB-435, 54 µM (inactive); in the test on MOLT-4 it was 12.4 µM (inactive); with NCI-H23, 55.2 µM (inactive); in the test on OVCAR-3, 38.6 µM (inactive); in the test with RPMI-8226, 19.2 µM (inactive). In addition, the GI50 in the test on SF-539 was 32.1 µM (inactive); in the test on SK-MEL-2, 47.3 µM (inactive); with SR, 0.618 µM (active); in the test with T47D, 22.7 µM (inactive); in the test on TK-10 it was 49.5 µM (inactive); with UACC-257, 86.1 µM (inactive). For the same molecule, the GI50 in the test with UACC-62 is 29.4 µM (inactive).
For the molecule `CN(C(=O)CC(=O)CP(=O)(c1ccccc1)c1ccccc1)c1ccccc1`, the GI50 in the test with CCRF-CEM, with COLO 205, in the test with DU-145, with EKVX, in the test with IGROV-1 and in the test with KM12 was > 100 µM (inactive) each time. For the same molecule, the GI50 in the test with MCF7, with MDA-MB-435, in the test on MOLT-4, with NCI-H23, in the test with OVCAR-3 and in the test with RPMI-8226 was > 100 µM (inactive) in each case. Also, the GI50 in the test with SF-539, in the test on SK-MEL-5, in the test with SR, in the test with T47D, in the test on TK-10 and with UACC-257 was > 100 µM (inactive) in each case. The GI50 in the test with UACC-62 was > 100 µM (inactive).
As for `CCOC(=O)C(NC(=O)CC)(Nc1ccc(F)c(Cl)c1)C(F)(F)F` (stereo not given), the GI50 in the test with CCRF-CEM was 35.6 µM (inactive); in the test with COLO 205, > 100 µM (inactive); with DU-145 it was > 100 µM (inactive); in the test on EKVX, > 100 µM (inactive); in the test with IGROV-1, > 100 µM (inactive); in the test on KM12, 35.8 µM (inactive). In addition, the GI50 with MCF7 was > 100 µM (inactive); in the test with MDA-MB-435, > 92.9 µM (inactive); with MOLT-4 it was > 74.8 µM (inactive); with OVCAR-3, > 100 µM (inactive); in the test with RPMI-8226, > 63.2 µM (inactive); with SF-539, > 100 µM (inactive). The GI50 in the test on SK-MEL-2 is > 70 µM (inactive); in the test on SK-MEL-5, > 67.6 µM (inactive); in the test with SR, > 45.6 µM (inactive); in the test on T47D it was > 100 µM (inactive); with TK-10, > 100 µM (inactive); with UACC-257, > 100 µM (inactive). The GI50 with UACC-62 is 34.4 µM (inactive).
Turning to `CC(=O)Nc1ccccc1NC1CC(C)N(c2ccccc2)N1C(C)=O` (stereo not given), the GI50 in the test on CCRF-CEM, in the test on COLO 205, with DU-145, with EKVX, in the test on IGROV-1 and in the test with KM12 was > 10 µM (inactive) in each case. In addition, the GI50 in the test with MCF7, with MDA-MB-435, with MOLT-4, with NCI-H23, with RPMI-8226 and with SK-MEL-5 was > 10 µM (inactive) each time. In addition, the GI50 in the test with SR, with T47D, in the test with TK-10, with UACC-257 and in the test on UACC-62 was > 10 µM (inactive) in each case.
As to `C#CC(O)/C=C/CCCCCCC#CC/C=C\CC#CCCCCCCCCC(O)C#C` (stereo not given), the GI50 in the test on CCRF-CEM was 0.0836 µM (active); in the test on COLO 205, 2.58 µM (inactive); with DU-145, 5.83 µM (inactive); in the test with EKVX it was 3.51 µM (inactive); in the test with IGROV-1, 0.407 µM (active); in the test on KM12, 3.05 µM (inactive). In addition, the GI50 in the test with MCF7 was 17.4 µM (inactive); in the test with MDA-MB-435 it was 2.53 µM (inactive); with MOLT-4, 0.27 µM (active); in the test on NCI-H23, 1.02 µM (active); in the test on OVCAR-3 it was 10.1 µM (inactive); in the test with SF-539, 20.8 µM (inactive). Besides, the GI50 in the test with SK-MEL-2 was 2.59 µM (inactive); in the test with SK-MEL-5 it was 2.68 µM (inactive); with SR, 2.37 µM (inactive); in the test with T47D, 10.5 µM (inactive); in the test on TK-10, 13.1 µM (inactive); in the test with UACC-257, 3.35 µM (inactive). In the test with UACC-62, the GI50 was 9.08 µM (inactive).
On to `COc1cc(C2c3cccc4cccc(c34)C3CCC(=O)N32)cc(O)c1O` (stereo not given), for which the GI50 in the test on CCRF-CEM was 10.9 µM (inactive); in the test on COLO 205, > 50 µM (inactive); in the test on DU-145, > 50 µM (inactive); in the test with EKVX it was 26.7 µM (inactive); with IGROV-1, 26.9 µM (inactive); in the test on KM12, > 50 µM (inactive). The GI50 was 20.6 µM (inactive) in the test on MCF7; 19.2 µM (inactive) with MDA-MB-435; 12.7 µM (inactive) with MOLT-4; 27.1 µM (inactive) with NCI-H23; 18.1 µM (inactive) with OVCAR-3; 11.5 µM (inactive) in the test with RPMI-8226. Moreover, the GI50 with SF-539 is 20.9 µM (inactive); with SK-MEL-2 it was > 50 µM (inactive); in the test with SR it was 9.71 µM (inactive); in the test on T47D it was 29.9 µM (inactive); in the test with UACC-257 it was 24.7 µM (inactive); in the test with UACC-62, 25.6 µM (inactive).
For the molecule `CCOc1ccccc1N1CSc2nnc(-c3ccccc3)n2C1`, the GI50 in the test on CCRF-CEM was 20 µM (inactive); in the test with COLO 205, 68.1 µM (inactive); in the test with DU-145 it was > 100 µM (inactive); with IGROV-1 it was > 100 µM (inactive); with KM12 it was > 100 µM (inactive); with MCF7 it was 97.3 µM (inactive). In addition, the GI50 is > 100 µM (inactive) with MDA-MB-435; > 100 µM (inactive) in the test with MOLT-4; > 100 µM (inactive) in the test with NCI-H23; > 100 µM (inactive) in the test on OVCAR-3; 33.8 µM (inactive) in the test on RPMI-8226; > 100 µM (inactive) in the test with SF-539. Moreover, the GI50 is > 100 µM (inactive) in the test with SK-MEL-2; > 100 µM (inactive) with SK-MEL-5; 44.4 µM (inactive) in the test on SR; > 100 µM (inactive) in the test on T47D; > 100 µM (inactive) in the test on TK-10; > 100 µM (inactive) in the test on UACC-257. Further, the GI50 with UACC-62 was > 100 µM (inactive).
For the molecule `COC(=O)C(CCCCNC(=O)OCc1ccccc1)NC(=O)C(CCC(=O)OCc1ccccc1)NC(=O)OC(C)(C)C` (stereo not given) (Boc-Glu(OBn)-Lys(Cbz)-OMe; configuration not given here), the GI50 in the test with COLO 205, in the test with DU-145, in the test on EKVX, in the test on IGROV-1, in the test on KM12 and in the test on MCF7 was > 100 µM (inactive) throughout. Also, the GI50 in the test on MDA-MB-435 is > 100 µM (inactive); with MOLT-4, > 100 µM (inactive); in the test on NCI-H23 it was > 100 µM (inactive); in the test with OVCAR-3, 73.1 µM (inactive); in the test on RPMI-8226, > 100 µM (inactive); with SF-539, > 100 µM (inactive). The GI50 in the test on SK-MEL-5 was > 100 µM (inactive); in the test on SR, > 100 µM (inactive); with T47D, > 100 µM (inactive); with TK-10 it was > 100 µM (inactive); in the test on UACC-62 it was 43 µM (inactive).
